From PMC3734245, “Surface Display and Bioactivity of Bombyx mori Acetylcholinesterase on Pichia pastoris” (PLoS ONE, 2013)

Biological target: T1, displayed BmAChE (Bombyx mori, UniProt A5A2M5)
T1 construct: signal peptide and hydrophobic C-terminal tail removed; N-terminal FLAG tag; (Gly4Ser)3 linker to S. cerevisiae AGalpha1 anchor at C-terminus; bmace about 1900 bp; primers encode N-terminal RSWANH and C-terminal TGPYSS
Assay: Ellman assay, yeast cell suspension displaying the enzyme
Assay type: cell-based

T1 sequence (A5A2M5 entry or part of it): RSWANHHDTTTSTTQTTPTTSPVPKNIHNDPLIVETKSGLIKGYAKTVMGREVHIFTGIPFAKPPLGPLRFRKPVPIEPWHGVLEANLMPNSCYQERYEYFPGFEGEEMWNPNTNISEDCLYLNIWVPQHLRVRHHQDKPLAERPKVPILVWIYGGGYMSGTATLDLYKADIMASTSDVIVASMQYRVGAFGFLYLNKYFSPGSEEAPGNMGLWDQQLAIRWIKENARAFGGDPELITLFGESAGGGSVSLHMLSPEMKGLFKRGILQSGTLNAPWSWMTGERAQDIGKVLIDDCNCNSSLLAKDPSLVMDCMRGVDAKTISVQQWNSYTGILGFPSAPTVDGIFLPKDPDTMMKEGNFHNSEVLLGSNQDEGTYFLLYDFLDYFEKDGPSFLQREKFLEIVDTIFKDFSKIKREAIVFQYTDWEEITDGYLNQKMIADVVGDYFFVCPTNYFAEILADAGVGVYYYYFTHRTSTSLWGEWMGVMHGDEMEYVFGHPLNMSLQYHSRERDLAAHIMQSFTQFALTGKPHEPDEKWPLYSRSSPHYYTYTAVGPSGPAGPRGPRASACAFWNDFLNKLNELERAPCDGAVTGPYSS

| SMILES | IC50 [nM] |
| --- | --- |
| CNC(=O)Oc1cccc2c1OC(C)(C)C2 [carbofuran] | 1.92 |
| COP(N)(=O)SC (stereo not shown) [methamidophos] | 1070 |
| CNC(=O)Oc1cc(C)c(SC)c(C)c1 [methiocarb] | 65.8 |
| CNC(=O)Oc1ccccc1C(C)C [isoprocarb] | 11.1 |
| COP(=O)(OC)C(O)C(Cl)(Cl)Cl (stereo not shown) [trichlorphon] | 240 |
| CCCCN(CCCC)SN(C)C(=O)Oc1cccc2c1OC(C)(C)C2 [carbosulfan] | 113 |
| CNC(=O)Oc1ccc2c(c1)[C@]1(C)CCN(C)[C@@H]1N2C [eserine] | 41.7 |
| COP(N)(=S)Oc1ccccc1C(=O)OC(C)C (stereo not shown) [isocarbophos] | 910 |
| CNC(=O)CSP(=S)(OC)OC [dimethoate] | 1140 |
| CCOP(=S)(OCC)Oc1ccc([N+](=O)[O-])cc1 [parathion] | 1130 |
| CCOC(=O)CC(SP(=S)(OC)OC)C(=O)OCC (stereo not shown) [malathion] | 1410 |
| COP(=O)(OC)OC=C(Cl)Cl [dichlorphos] | 903 |
| CNC(=O)ON=C(C)SC [methomyl] | 64.1 |
